Consider 53 molecules from PubChem BioAssay AID1409 (The Scripps Research Institute Molecular Screening Center, 2008).

This experiment relates to Cell-based STAT3 reporter inhibition, counterscreen. Put plainly: STAT3 reporter signal reduction – cell-based, counter-screen for STAT1 inhibitor project, dose response (AID 1409). On the technique in general: Counterscreens check selectivity or assay interference.

Each structure is given as a SMILES string. Active and inactive are the calls of the source. No rule for the calls is given here.

One may read the IC50 as the concentration that gives 50% inhibition. On to `CCOC(=O)N1CCN(C(=O)/C=C/c2c(C)nn(-c3ccc(F)cc3)c2Cl)CC1`, for which the IC50 is 37.1 µM (inactive). Regarding `COc1ccc(-n2c(SCc3cccnc3)nc3c(c2=O)SCC3)cc1OC`, the IC50 is > 55.7 µM (inactive).

In the case of `CCOC(=O)N1CCN(C(=O)c2ccc(CSc3ccc(Cl)cc3)cc2)CC1`, the IC50 was 16.5 µM (inactive). For the molecule `Cc1cc(=O)n(C(NC(=O)c2ccccc2)C(=O)c2ccccc2)cn1` (stereo not drawn), the IC50 was > 55.7 µM (inactive). Consider `COC(=O)CCS(=O)(=O)c1nc(-c2ccccc2)cc(C(F)(F)F)n1`, for which the IC50 was 25.5 µM (inactive). On to `O=C(NNC(=O)c1cccc(S(=O)(=O)N2CCc3ccccc32)c1)c1ccccc1`, for which the IC50 is 15.9 µM (inactive). As to `CN1CCN(Cc2nc3ccccc3c(=O)n2Cc2nc(-c3ccccc3F)cs2)CC1`, the IC50 was > 55.7 µM (inactive). Take `CCOC(=O)CCS(=O)(=O)c1nc(-c2ccccc2)cc(C(F)(F)F)n1`: the IC50 is 24.2 µM (inactive).

Consider `CCOC(=O)C(=CNc1cc(C)nn1-c1ccccc1)C(=O)OCC`, for which the IC50 is > 55.7 µM (inactive). For `CCn1c(=O)c2cc(C(=O)N3CCCC3)sc2c2ccccc21`, the IC50 was > 55.7 µM (inactive). As for `CCOC(=O)c1c(C)nc2sc3c(=O)n(-c4ccc(OC)cc4)nnc3c2c1-c1ccc(OC)cc1`, the figure is > 55.7 µM (inactive); as for `Cc1ccc2[nH]c3c(N4CCN(Cc5ccccc5)CC4)ncnc3c2c1`, 16.2 µM (inactive); as for `COc1ccc(-c2cc(C(F)(F)F)nc(S(=O)(=O)CCCC(=O)Nc3cccnc3Cl)n2)cc1OC`, 32.6 µM (inactive). Regarding `CC1(C)Cc2c(ccc3ccccc23)C2=C(C(=O)N3CCCC3)C(=O)C(=O)N21`, the IC50 is > 55.7 µM (inactive). Next, `Cc1ccc(-n2nc(C(=O)O)c3ccccc3c2=O)cc1C`: > 55.7 µM (inactive); `CN1CCN(Cc2nc3ccccc3c(=O)n2Cc2nc(-c3ccc4ccccc4c3)cs2)CC1`: 49.2 µM (inactive); `O=C(c1ccc2c(c1)N(Cc1ccccc1)C(=O)c1ccccc1S2)N1CCCC1`: > 55.7 µM (inactive). As to `O=c1cc(CSc2nc3ccccc3c(=O)[nH]2)c2ccc(O)cc2o1`, the IC50 was > 55.7 µM (inactive). With `Cc1ccccc1-c1noc(N)c1C#N`, the IC50 was > 55.7 µM (inactive). For `CS(=O)(=O)c1nc(-c2ccccc2)cc(C(F)(F)F)n1`, the IC50 was 20.8 µM (inactive).

For the molecule `COc1ccccc1-c1cc(C(F)(F)F)nc(S(C)(=O)=O)n1`, the IC50 was 31.8 µM (inactive). For `CCN(CC)S(=O)(=O)c1ccc(N2CCOCC2)c(NC(=O)c2cc(-c3ccccn3)nc3ccccc23)c1`, the IC50 is 9.73 µM. With `O=C(c1ccco1)N1CCN(c2ncnc3c2[nH]c2ccc(Br)cc23)CC1`, the IC50 was 25.6 µM (inactive). Consider `Cc1cc(NC(=O)CCCS(=O)(=O)c2nc(-c3cccs3)cc(C(F)(F)F)n2)no1`, for which the IC50 is > 55.7 µM (inactive). Turning to `COc1ccc(CNc2ncnc3cc(Cl)ccc23)cc1OC`, the IC50 is > 18.6 µM (inactive). With `CCn1c(O)c(/C=N/NC(=O)c2ccncc2)c(=O)n(CC)c1=S`, the IC50 was > 55.7 µM (inactive). `Cc1ccc(C2=Nc3c(ccc4ccccc34)C(c3ccncc3)=NN2)cc1`: the IC50 was > 55.7 µM (inactive). With `COc1ccccc1-c1cc(C(F)(F)F)nc(S(=O)(=O)CCCC(=O)Nc2cccnc2Cl)n1`, the IC50 was 34.6 µM (inactive).

With `O=C(c1ccco1)N1CCN(c2ncnc3c2[nH]c2ccccc23)CC1`, the IC50 is > 55.7 µM (inactive).

As for `C#Cc1ccc([C@H]2C=C(C(=O)OCC=C)O[C@@H](OCC)[C@@H]2CCCO)cc1`, the IC50 is > 55.7 µM (inactive).

With `COc1ccc(-c2cc(C(F)(F)F)nc(S(=O)(=O)CCCC(=O)Nc3cc(C)on3)n2)cc1OC`, the IC50 is 24.8 µM (inactive).

For `Cn1c(C(=O)N2CCN(c3ccc([N+](=O)[O-])cc3)CC2)cc2c(=O)[nH]c3ccccc3c21`, the IC50 was 28.7 µM (inactive). Next, `CS(=O)(=O)c1nc(-c2ccco2)cc(C(F)(F)F)n1`: 38 µM (inactive); `CS(=O)(=O)c1nc(-c2ccc(F)cc2)cc(C(F)(F)F)n1`: 23.8 µM (inactive). For `COCC(C)NC(=O)CCS(=O)(=O)c1nc(-c2ccc(OC)cc2)cc(C(F)(F)F)n1` (stereo not drawn), the IC50 was > 55.7 µM (inactive). Next, `COc1ccc(CCNC(=O)Cn2c(=O)n(-c3ccc(F)cc3)c(=O)c3sccc32)cc1OC`: > 55.7 µM (inactive); `COc1ccc(CCNc2ncnc3cc(OC)c(OC)cc23)cc1OC`: 14.6 µM (inactive).

As for `CCOc1cc(-c2noc(N)c2C#N)cc(OCC)c1OCC`, the IC50 was > 55.7 µM (inactive). Next, `O=C(CSc1nc2ccccc2c(=O)[nH]1)c1ccc(O)cc1O`: > 55.7 µM (inactive); `CCOC(=O)N1CCN(C(=O)c2ccc(-n3c(=S)[nH]c4ccccc4c3=O)cc2)CC1`: > 55.7 µM (inactive). For `Cc1ccccc1NC(=O)C(=Cc1ccc(C(=O)O)cc1)C(=O)Nc1ccccc1C`, the IC50 is > 55.7 µM (inactive). Next, `COC(=O)C1=CN(Cc2ccc(OC)c(OC)c2)C=C(C(=O)OC)C1c1cccs1`: > 55.7 µM (inactive); `Cc1ccc(-c2csc3ncnc(Sc4nnc(CN5CCCCCC5=O)o4)c23)cc1`: 12.2 µM (inactive); `Cc1cccc(/C=C(\c2nc3ccccc3[nH]2)S(=O)(=O)c2ccccc2)c1`: 20.3 µM (inactive). `O=C(c1ccc(Cl)cc1)N1CCN(c2ccnc3cc(Cl)ccc23)CC1`: the IC50 is 22 µM (inactive). Next, `COc1ccc(-c2cc(C(F)(F)F)nc(S(=O)(=O)CCCC(=O)Nc3cccc(O)c3)n2)cc1OC`: 31 µM (inactive). As to `Cc1ccc(C(=O)Nc2cccc(N(C)S(C)(=O)=O)c2)cc1S(=O)(=O)Nc1ccccc1`, the IC50 was > 55.7 µM (inactive).

Consider `CN1CCN(Cc2nc3ccccc3c(=O)n2Cc2nc(-c3cccc([N+](=O)[O-])c3)cs2)CC1`, for which the IC50 is > 55.7 µM (inactive).

As to `COc1ccccc1-c1cc(C(F)(F)F)nc(S(=O)(=O)CCCC(=O)N2CCOCC2)n1`, the IC50 was 30.9 µM (inactive). Turning to `Cc1ccc(S(=O)(=O)N2CCN(C(C(=O)Nc3ccc(F)cc3)c3ccccc3)CC2)cc1` (stereo not drawn), the IC50 was > 55.7 µM (inactive). As to `Cn1nnnc1Sc1ncnc2scc(-c3ccc(F)cc3)c12`, the IC50 was 22.6 µM (inactive). Next, `COc1ccccc1CNc1ncnc2cc(Cl)ccc12`: > 55.7 µM (inactive); `CC1C(=O)NN=C1C(=O)N/N=C\C(Br)=C\c1ccccc1` (stereo not drawn): 23.8 µM (inactive).
